Experimental data reported in patent US20240148723A1, “MYCOBACTERIUM TUBERCULOSIS COMPOSITIONS AND METHODS” (priority 2021, published 2024).
Converted amounts (≈) assume the structure as drawn.

The molecules below were run on M. tuberculosis. Conditions: pH 6.8.
Type: cell-based, Mycobacterium tuberculosis

Structure (SMILES) | MIC in the media 7H9 [µg/mL] | MIC in the media L-Ala [µg/mL] | MIC in the media SBA [µg/mL] | MIC in the media SLac [µg/mL]
C=C1C(=O)OC2CC1C(OC(C)=O)C/C(C)=C/CC/C(C)=C\CCC2(C)O (centres unmarked) [compound 46728] | ≥ 75.30 | 37.65 (≈ 100 µM) | 9.41 (≈ 25 µM) | 4.71 (≈ 12.5 µM)
CN(C)c1ccc(N=Nc2ccccn2)cc1 [compound 9358] | ≥ 22.63 | 5.66 (≈ 25 µM) | 1.41 (≈ 6.23 µM) | 1.41 (≈ 6.23 µM)
Oc1c(Cl)cc(Cl)c2cccnc12 [compound 3904] | ≥ 4 | 0.03 (≈ 0.14 µM) | 0.03 (≈ 0.14 µM) | 0.03 (≈ 0.14 µM)
NC(=O)c1cccc([N+](=O)[O-])c1 [compound 37327] | ≥ 66.44 | 66.44 (≈ 400 µM) | 33.22 (≈ 200 µM) | 66.44 (≈ 400 µM)
O=Nc1ccc(O)c2ncccc12 [compound 3852] | ≥ 4.36 | 2.18 (≈ 12.5 µM) | 2.18 (≈ 12.5 µM) | 1.09 (≈ 6.26 µM)
Oc1ccc(Cc2ccc(Cl)cc2)c(O)c1 [compound 11150] | ≥ 23.47 | 5.87 (≈ 25 µM) | 2.93 (≈ 12.5 µM) | 1.47 (≈ 6.26 µM)
O=C1C(O)=C(c2ccccc2)C(=O)C(O)=C1c1ccccc1 [compound 44175] | ≥ 29.23 | 7.31 (≈ 25 µM) | 3.65 (≈ 12.5 µM) | 3.65 (≈ 12.5 µM)
NC(=O)c1ccc([N+](=O)[O-])cc1 [compound 2902] | ≥ 66.44 | 16.61 (≈ 100 µM) | 33.22 (≈ 200 µM) | 8.31 (≈ 50 µM)
Cl.O=C(c1ccc(OCCN2CCCCC2)cc1)c1c(-c2ccc(O)cc2)sc2cc(O)ccc12 [compound 747974] | ≥ 47.36 | 2.96 | 2.96 | 2.96
CCC(C)(C)c1ccc(Oc2cccc(C(=O)O)c2)cc1 [compound 7962] | ≥ 28.43 | 3.55 (≈ 12.5 µM) | 3.55 (≈ 12.5 µM) | 0.45 (≈ 1.58 µM)
NC(=O)c1ccc(N)cc1 [compound 36963] | ≥ 54.48 | 6.81 (≈ 50 µM) | 13.62 (≈ 100 µM) | 3.41 (≈ 25 µM)
Cc1cc(C(C#N)c2ccc(Cl)cc2)c(Cl)cc1NC(=O)c1cc(I)cc(I)c1O (centres unmarked) [compound 335306] | ≥ 66.31 | 4.14 (≈ 6.24 µM) | 4.14 (≈ 6.24 µM) | 4.14 (≈ 6.24 µM)
Oc1ccc(Cc2ccccc2Cl)c(O)c1 [compound 11149] | ≥ 23.47 | 5.87 (≈ 25 µM) | 2.93 (≈ 12.5 µM) | 1.47 (≈ 6.26 µM)
O=C(Nc1ccccc1)c1cc(Cl)ccc1O [compound 402600] | ≥ 24.77 | 1.55 (≈ 6.26 µM) | 1.55 (≈ 6.26 µM) | 0.79 (≈ 3.19 µM)
Oc1ccc(Cl)cc1Sc1cc(Cl)ccc1O [compound 55636] | ≥ 114.88 | 1.80 (≈ 6.27 µM) | 0.92 (≈ 3.2 µM) | 0.92 (≈ 3.2 µM)
COc1cc(N)c2ncccc2c1 [compound 13573] | ≥ 8.71 | 8.71 (≈ 50 µM) | 8.71 (≈ 50 µM) | 17.42 (≈ 100 µM)
CN(C)CCCN1c2ccc3ccccc3c2Sc2cccc(Cl)c21 [compound 24113] | ≥ 9.22 | 2.31 (≈ 6.26 µM) | 2.31 (≈ 6.26 µM) | 1.18 (≈ 3.2 µM)
CCOc1ccc(Nc2c3ccccc3nc3ccccc23)cc1 [compound 30205] | ≥ 1.97 | 1.97 (≈ 6.27 µM) | 3.93 (≈ 12.5 µM) | 1.97 (≈ 6.27 µM)
CCCOC(=O)c1ccc([N+](=O)[O-])cc1 [compound 406847] | ≥ 83.68 | 5.23 (≈ 25 µM) | 10.46 (≈ 50 µM) | 5.23 (≈ 25 µM)
CCCCOC(=O)c1ccc(N)cc1 [compound 128464] | ≥ 800 | 0.06 (≈ 0.31 µM) | 0.06 (≈ 0.31 µM) | 0.06 (≈ 0.31 µM)
O=C(c1ccc(F)c(F)c1Nc1ccc(I)cc1F)N1CC(O)(C2CCCCN2)C1 (centres unmarked) [compound 768068] | ≥ 26.57 | 13.28 (≈ 25 µM) | 3.32 (≈ 6.25 µM) | 3.32 (≈ 6.25 µM)

Structure (SMILES) | MIC in the media 7H9 [µg/mL] | MIC in the media L-Ala [µg/mL] | MIC in the media SBA [µg/mL] | MIC in the media SLac [µg/mL]
Cc1ccc2ccc(C#N)cc2c1O [compound 128068] | ≥ 18.32 | 9.16 (≈ 50 µM) | 9.16 (≈ 50 µM) | 2.29 (≈ 12.5 µM)
CCOc1ccc(N=Nc2ccc(N)cc2N)cc1 [compound 190374] | ≥ 6.41 | 3.20 (≈ 12.5 µM) | 6.41 (≈ 25 µM) | 3.20 (≈ 12.5 µM)
O=[N+]([O-])c1cnc(Sc2ccncn2)s1 [compound 311727] | ≥ 24.03 | 0.77 (≈ 3.2 µM) | 0.77 (≈ 3.2 µM) | 0.77 (≈ 3.2 µM)
CS(=O)(=O)O.OC(c1cc(C(F)(F)F)nc2c(Cl)cc(Cl)cc12)C1CCCCN1 (centres unmarked) [compound 322661] | ≥ 11.88 | 2.97 | 1.52 | 2.97
COC(=O)c1cc([N+](=O)[O-])cc([N+](=O)[O-])c1 [compound 7317] | ≥ 90.44 | 11.31 (≈ 50 µM) | 5.65 (≈ 25 µM) | 5.65 (≈ 25 µM)
COC1C=COC2(C)Oc3c(C)c(O)c4c(O)c(cc(O)c4c3C2=O)NC(=O)C(C)=CC=CC(C)C(O)C(C)C(O)C(C)C(OC(C)=O)C1C (centres unmarked) [compound 133100] | ≥ 0.56 | 0.56 (≈ 0.803 µM) | 0.56 (≈ 0.803 µM) | 0.56 (≈ 0.803 µM)
CCOC(=O)c1cccc([N+](=O)[O-])c1 [compound 32740] | ≥ 78.08 | 2.44 (≈ 12.5 µM) | 4.88 (≈ 25 µM) | 2.44 (≈ 12.5 µM)
Cc1nc(C(=O)N=C(N)N)c(N)nc1-c1ccccc1 [compound 614911] | ≥ 108.12 | 13.52 (≈ 50 µM) | 27.03 (≈ 100 µM) | 27.03 (≈ 100 µM)
CCOC(=O)c1ccc(N)cc1 [compound 41531] | ≥ 800 | 0.26 (≈ 1.57 µM) | 0.26 (≈ 1.57 µM) | 0.26 (≈ 1.57 µM)
CCCCc1oc2ccccc2c1C(=O)c1cc(I)c(OCCN(CC)CC)c(I)c1.Cl [compound 85442] | ≥ 8.52 | 4.26 | 2.18 | 1.09
C=CCOc1c(CCC)cc(CCC)cc1C(N)=O [compound 37955] | ≥ 26.14 | 13.07 (≈ 50 µM) | 13.07 (≈ 50 µM) | 3.27 (≈ 12.5 µM)
CN1CCc2cc3c(c4c2C1Cc1ccccc1-4)OCO3.Cl (centres unmarked) [compound 785164] | ≥ 13.97 | 6.98 | 3.49 | 1.75
CC[C@@H](O)C[C@H]1CCC[C@@]2(C[C@@H]3OC(=O)/C=C/[C@@](C)(O)[C@@H](O)[C@H](C)[C@@H](O)[C@H](OC4CCC(N(C)C)C(C)O4)[C@@H](O)[C@](C)(O)CCCCC/C=C/[C@@H]4CC(C)(C)O[C@@]4(O)C[C@H](O2)[C@H]3C)O1 (some centres unmarked) [compound 76627] | ≥ 22.81 | 5.7 (≈ 6.25 µM) | 11.4 (≈ 12.5 µM) | 5.7 (≈ 6.25 µM)
OC(c1cc(-c2ccc(C(F)(F)F)cc2)nc(C(F)(F)F)c1)C1CCCCN1 (centres unmarked) [compound 305798] | ≥ 10.11 | 1.25 (≈ 3.09 µM) | 2.53 (≈ 6.26 µM) | 2.53 (≈ 6.26 µM)
O=[N+]([O-])c1cc([N+](=O)[O-])c2cccnc2c1O [compound 57103] | ≥ 23.52 | 0.75 (≈ 3.19 µM) | 0.75 (≈ 3.19 µM) | 0.75 (≈ 3.19 µM)
CCOC(=O)CCCCCCCCCCCCC1C=CCC1 (centres unmarked) [compound 38010] | ≥ 30.85 | 3.86 (≈ 12.5 µM) | 1.93 (≈ 6.26 µM) | 1.93 (≈ 6.26 µM)
O=C1CC(c2ccc(O)cc2)Oc2cc(O)cc(O)c21 (centres unmarked) [compound 34875] | ≥ 27.23 | 6.81 (≈ 25 µM) | 6.81 (≈ 25 µM) | 1.70 (≈ 6.24 µM)
NC(=O)c1cccc(N)c1 [compound 36962] | ≥ 54.48 | 13.62 (≈ 100 µM) | 13.62 (≈ 100 µM) | 13.62 (≈ 100 µM)
Cc1c(Cl)ccc2c(C(=O)O)cc(-c3ccccc3)nc12 [compound 40306] | ≥ 29.77 | 7.44 (≈ 25 µM) | 7.44 (≈ 25 µM) | 3.72 (≈ 12.5 µM)
O=c1c(-c2ccc(O)cc2)coc2cc(O)cc(O)c12 [compound 36586] | ≥ 108.10 | 13.51 (≈ 50 µM) | 13.51 (≈ 50 µM) | 1.69 (≈ 6.25 µM)
